The target of assay [1] is 5-hydroxytryptamine receptor 2B (Rattus norvegicus) (UniProt P30994). The assay can be described thus: Non-surmountable antagonist activity at 5-HT2B in Rattus norvegicus CD (rat) stomach fundus sections assessed as inhibition of serotonin-induced contractile response after 1 hr.
Assay [2] has as its target T1, 5-hydroxytryptamine receptor 2C (Rattus norvegicus) (UniProt P08909).
T1 sequence (whole entry): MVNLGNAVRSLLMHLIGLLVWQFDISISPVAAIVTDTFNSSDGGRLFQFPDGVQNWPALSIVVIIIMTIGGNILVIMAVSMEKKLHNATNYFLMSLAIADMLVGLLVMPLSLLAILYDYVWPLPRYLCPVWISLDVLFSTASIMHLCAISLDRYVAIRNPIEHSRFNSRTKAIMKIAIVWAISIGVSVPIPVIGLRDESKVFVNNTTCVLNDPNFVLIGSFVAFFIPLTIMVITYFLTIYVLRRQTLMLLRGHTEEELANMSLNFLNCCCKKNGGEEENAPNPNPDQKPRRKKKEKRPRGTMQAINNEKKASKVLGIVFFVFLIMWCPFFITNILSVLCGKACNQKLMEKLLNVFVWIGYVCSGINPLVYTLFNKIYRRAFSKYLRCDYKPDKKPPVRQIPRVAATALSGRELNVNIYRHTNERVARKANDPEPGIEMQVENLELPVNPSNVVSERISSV
The assay can be described thus: Displacement of [3H]mesulergine from 5-HT2C in Rattus norvegicus CD (rat) […] sections at 10 uM after 1 hr. (In general: Loss of bound radioactivity is the signal in a displacement assay; it reports binding, not function.)

Assay [3] deals with 5-hydroxytryptamine receptor 2A (Rattus norvegicus) (UniProt P14842). In words: Displacement of [3H]ketansarin from 5-HT2A in Rattus norvegicus CD (rat) […] sections at 10 uM after 1 hr.
5-hydroxytryptamine receptor 2A (Rattus norvegicus), sequence (P14842 whole entry): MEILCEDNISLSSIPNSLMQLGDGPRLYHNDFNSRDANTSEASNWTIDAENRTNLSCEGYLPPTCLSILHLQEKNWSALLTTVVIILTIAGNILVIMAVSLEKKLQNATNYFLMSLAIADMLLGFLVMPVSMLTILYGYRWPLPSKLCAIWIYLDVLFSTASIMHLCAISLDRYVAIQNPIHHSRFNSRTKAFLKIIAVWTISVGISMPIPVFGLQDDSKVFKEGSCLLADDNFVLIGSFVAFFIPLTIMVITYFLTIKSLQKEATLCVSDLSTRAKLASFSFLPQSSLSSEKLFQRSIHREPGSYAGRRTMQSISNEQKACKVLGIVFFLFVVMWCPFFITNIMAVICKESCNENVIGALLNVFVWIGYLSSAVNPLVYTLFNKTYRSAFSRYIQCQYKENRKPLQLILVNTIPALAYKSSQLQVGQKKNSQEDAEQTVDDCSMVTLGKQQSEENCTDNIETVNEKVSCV
In assay [4] the target is 5-hydroxytryptamine receptor 2B (Rattus norvegicus) (UniProt P30994). In words: Binding affinity to 5-HT2B in Rattus norvegicus CD (rat) stomach fundus sections after 1 hr.
For assay [5] the target is unchanged. The assay can be described thus: Antagonist activity at 5-HT2B in Rattus norvegicus CD (rat) stomach fundus sections assessed as inhibition of serotonin-induced contractile response at 10 '-5 M after 1 hr.

Activity calls are given as the source filed them. The calls are words filed in the database; no cut-off is given here.

5-hydroxytryptamine receptor 2B (Rattus norvegicus), sequence (P30994 whole entry): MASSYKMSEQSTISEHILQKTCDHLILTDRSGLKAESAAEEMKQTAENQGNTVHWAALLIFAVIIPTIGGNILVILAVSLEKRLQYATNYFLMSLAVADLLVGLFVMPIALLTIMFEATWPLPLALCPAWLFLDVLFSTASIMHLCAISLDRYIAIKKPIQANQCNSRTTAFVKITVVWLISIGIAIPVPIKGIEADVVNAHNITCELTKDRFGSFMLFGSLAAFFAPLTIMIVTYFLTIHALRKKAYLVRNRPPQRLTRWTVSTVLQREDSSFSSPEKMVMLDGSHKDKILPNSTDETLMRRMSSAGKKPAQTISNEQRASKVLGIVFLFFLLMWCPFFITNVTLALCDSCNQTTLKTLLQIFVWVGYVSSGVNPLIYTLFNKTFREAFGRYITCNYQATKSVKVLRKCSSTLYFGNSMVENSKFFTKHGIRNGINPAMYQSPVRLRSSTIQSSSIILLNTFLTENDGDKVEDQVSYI

One may read the pKb as −log10 of the Kb, conventionally taken in molar units. A low value points to a large Kb. Consider `OC(Cc1ccccc1)c1cc2ccccc2[nH]1` (configuration not stated), for which the inhibition entry in assay [1] was “inactive”. Further, the Activity in assay [2] and in assay [3] was under 5% throughout. In assay [4], this molecule gave a pKb of under 5.

As for `CCNCc1nc2ccccc2[nH]1`, the inhibition entry in assay [5] and in assay [1] was “inactive” in each case. For the same molecule, the Activity in assay [2] and in assay [3] was under 5% throughout. The molecule also came in with a pKb in assay [4] of under 5.

With `COc1ccc(CCc2nc3ccccc3[nH]2)cc1OC`, in assay [1], the inhibition result is “inactive”. Further, the Activity in assay [2] and in assay [3] was under 5% throughout. For the same molecule, the pKb in assay [4] was 5.84.

For `NC(Cc1ccccc1)c1nc2ccccc2s1` (configuration not stated), the inhibition entry in assay [5] and in assay [1] was “inactive” each time. In addition, the Activity in assay [2] and in assay [3] was under 5% in each case. In assay [4], this molecule had a pKb of under 5.

`O/N=C(\Cc1ccccc1)c1cc2ccccc2[nH]1`: in assay [1], the inhibition result was “inactive”. For the same molecule, the Activity in assay [2] and in assay [3] was under 5% in each case. The molecule also registered a pKb in assay [4] of under 5.

`COC(=O)[C@@H]1[C@H]2C[C@H]3c4[nH]c5ccccc5c4CCN3C[C@@H]2CC[C@@H]1O` returned a pKb in assay [4] of 7.74.

Turning to `c1ccc(CCc2nc3ccccc3s2)cc1`, the inhibition entry in assay [1] was “inactive”. Besides, the Activity in assay [2] and in assay [3] was under 5% in each case. This molecule also showed a pKb in assay [4] of 5.15.

For the molecule `COc1ccc(CC(O)c2nc3ccccc3s2)cc1OC` (configuration not stated), the inhibition result in assay [1] was “inactive”. Further, the Activity in assay [2] and in assay [3] was under 5% throughout. Besides, in assay [4], the negative-log Kb (pKb) is 5.16.

Take `c1ccc(CCc2nc3ccccc3o2)cc1`: the inhibition entry in assay [1] is “inactive”. Further, the Activity in assay [2] and in assay [3] was under 5% in each case. The molecule also gave a pKb in assay [4] of 5.23.

As to `NCc1nc2ccccc2[nH]1`, the inhibition result in assay [5] and in assay [1] was “inactive” each time. Further, the Activity in assay [2] and in assay [3] was under 5% in each case. In assay [4], the pKb was under 5.

For the molecule `COc1ccc(CC(O)c2nc3ccccc3[nH]2)cc1OC` (configuration not stated), the inhibition entry in assay [5] and in assay [1] was “inactive” in each case. Also, the Activity in assay [2] and in assay [3] was under 5% each time. The molecule further gave a pKb in assay [4] of under 5.

As for `COc1ccc(CC(O)c2nc3ccccc3o2)cc1OC` (configuration not stated), the inhibition result in assay [1] is “inactive”. Moreover, the Activity in assay [2] and in assay [3] was under 5% throughout. In addition, the pKb in assay [4] worked out at 5.1.

Molecule `COc1ccc(CC2NCCc3c2[nH]c2ccccc32)cc1OC` (configuration not stated) yielded a pKb in assay [4] of 9.17.

As to `NC(Cc1ccccc1)c1nc2ccccc2[nH]1` (configuration not stated), the inhibition result in assay [5] and in assay [1] was “inactive” in each case. In addition, the Activity in assay [2] and in assay [3] was under 5% each time. The molecule further displayed a pKb in assay [4] of under 5.

`OC(Cc1ccccc1)c1nc2ccccc2o1` (configuration not stated): the inhibition entry in assay [5] and in assay [1] was “inactive” in each case. In addition, the Activity in assay [2] and in assay [3] was under 5% each time. The molecule further came in with a pKb in assay [4] of under 5.

For `c1ccc(CCc2nc3ccccc3[nH]2)cc1`, in assay [1], the inhibition result was “inactive”. The Activity in assay [2] and in assay [3] was under 5% in each case. In assay [4], this molecule had a pKb of 5.29.

Take `NC(Cc1ccccc1)c1cc2ccccc2[nH]1` (configuration not stated): the inhibition result in assay [1] was “inactive”. Besides, the Activity in assay [2] and in assay [3] was under 5% each time. Moreover, in assay [4], the pKb was under 5.

For `OC(Cc1ccccc1)c1nc2ccccc2[nH]1` (configuration not stated), in assay [1], the inhibition result is “inactive”. Moreover, the Activity in assay [2] and in assay [3] was under 5% each time. The same molecule registered a pKb in assay [4] of 5.16.

Take `CCNC(Cc1ccccc1)c1nc2ccccc2[nH]1` (configuration not stated): the inhibition result in assay [1] was “inactive”. In addition, the Activity in assay [2] and in assay [3] was under 5% each time. This molecule showed a pKb in assay [4] of 5.84.

For `COc1ccc(CCc2nc3ccccc3s2)cc1OC`, the inhibition entry in assay [1] is “inactive”. For the same molecule, the Activity in assay [2] and in assay [3] was under 5% in each case. Further, the pKb in assay [4] was determined as 5.61.

On to `O=C(Cc1ccccc1)c1cc2ccccc2[nH]1`, for which the inhibition entry in assay [1] is “inactive”. Also, the Activity in assay [2] and in assay [3] was under 5% throughout. Also, in assay [4], the pKb came out at 5.58.

On to `COc1ccc(CCc2nc3ccccc3o2)cc1OC`, for which the inhibition result in assay [1] is “inactive”. Also, the Activity in assay [2] and in assay [3] was under 5% in each case. The pKb in assay [4] is 5.59.

Take `OC(Cc1ccccc1)c1nc2ccccc2s1` (configuration not stated): the inhibition entry in assay [1] is “inactive”. In addition, the Activity in assay [2] and in assay [3] was under 5% throughout. This molecule displayed a pKb in assay [4] of 5.25.

These data come from ChEMBL document CHEMBL3045258, “Benzimidazole, Benzoxazole and Benzothiazole Derivatives as 5HT2B Receptor Ligands. Synthesis and Preliminary Pharmacological Evaluation” (Med Chem Res, 2005).
